From US20130017537A1, “METHOD OF IN-VITRO IMMUNOASSAY” (BASF Beauty Care Solutions France S.A.S., priority 2011, published 2013)

System: type V collagen in the ECM
Assay: Influence of the lysis solution on the assay of type V collagen in the ECM
Type: cell-based, human
Conditions: for Ratio: Coll/DNA % (NH4OH = 100): repeat experiment, Table 3.2; for Ratio: Coll/DNA % (20 mM = 100.00): Table 3.3
Procedure: Thus, normal human fibroblasts obtained from abdominal biopsies were seeded in a 96-well plate and cultured in a defined medium (FGM) to 100% confluency.
After 48 hours of culture postconfluency at 37° C. under 0.5% CO2, the culture medium was collected.
The time of application of the lysis solution tested was 10 minutes at room temperature and with stirring.
The collagen V in the ECM was assayed directly on the ECM by using an anticollagen V antibody. A secondary antibody conjugated to europium was used with a detection reagent and the fluorescence was measured. (Delfia® kit—Perkin Elmer).
The experiment was repeated and the lysis solutions tested were as follows: • solution according to the invention NH4OH: 110 μl of an ammonium hydroxide solution at concentrations between 200 μM and 2 M. • Solution of monoethylamine at 20 Mm • Solution of diethylamine at 20 mM • Solution of triethylamine at 20 mM

| SMILES | Ratio: Coll/DNA % (NH4OH = 100) | Ratio: Coll/DNA % (20 mM = 100.00) (NH4OH 200 μM) | Ratio: Coll/DNA % (20 mM = 100.00) (NH4OH 2 mM) | Ratio: Coll/DNA % (20 mM = 100.00) (NH4OH 20 mM) | Ratio: Coll/DNA % (20 mM = 100.00) (NH4OH 200 mM) | Ratio: Coll/DNA % (20 mM = 100.00) (NH4OH 2M) |
| --- | --- | --- | --- | --- | --- | --- |
| CCNCC [Diethylamine, diethylamine] | 17.33% |  |  |  |  |  |
| N [NH4OH, ammonium hydroxide] | 100% | 117.43% | 131.56% | 100.00% | 86.47% | 67.67% |
| CCN(CC)CC [Triethylamine, triethylamine] | 21.13% |  |  |  |  |  |
| CCN [Monoethylamine, monoethylamine] | 23.78% |  |  |  |  |  |
